In patent publication US6160004A, “C-10 carbon-substituted artemisinin-like trioxane compounds having antimalarial, antiproliferative and antitumor activities” (priority 1998, dated 2000):
pIC50: −log10 of the molar value. Like-named read-outs stand apart in the source and are kept apart here.

Experiments:
malaria = test: In vivo antimalarial activity; parameters: species or system rodents; settings: sc
[1] = tested on: Ehrlich ascites tumor (EAT) cells; settings: MTT, growth inhibition; cited from earlier work
P. berghei = settings: P. berghei-infected mice, parasitemia 90 percent suppressed; cited from earlier work
[2] = tested on: P. vivax and P. falciparum; settings: cited from earlier work
[3] = tested on: P. falciparum, two Hanian strains; settings: P. falciparum in vitro; cited from earlier work
[4] = tested on: P. falciparum Camp (chloroquine-susceptible) and Smith (chloroquine-resistant) strains; settings: P. falciparum in vitro; cited from earlier work
[5] = cited from earlier work
IGROVI = test: NCI 60 cell line panel screening assay (SRB), IGROVI; type: cell-based; settings: 48 h, read-out: Log10 TGI
[6] = tested on: murine keratinocyte cell line PE; test: Growth inhibition of murine keratinocytes (MTT); type: cell-based, murine (SENCAR mice); settings: 100 nanomolar
Procedure: To determine the inhibitory effect of the compositions of the present invention on cell proliferation, screening assays were performed on a murine keratinocyte cell line PE. Cell line PE was chosen for its particular sensitivity to the induction of ornithine decarboxylase (ODC) activity by the extensively characterized tumor promoter TPA. […] PE cell culture medium consisted of Eagle's minimal essential medium without calcium chloride (Whittaker Bioproducts, Walkersville, Mass.) supplemented with 8% chelexed fetal calf serum and 1% antibiotic-antimycotic (Gibco BRL) and the addition of CaCl2 to 0.05 mM Ca^++.
MTT [3-(4,5-dimethylthiazol-2-yl)-2,5-diphenyltetraxolium bromide] was purchased from Sigma Chemical Co. (St. Louis, Mo.), and TPA was supplied by L.C. Services (Woburn, Mass.). L-[^14 C]omithine (56 μCi/mol) was from Amersham/Searle Corp. (Arlington Heights, Ill.). Chemical solvents used in all assays of biological activity were of the highest grade commercially available.
Growth Inhibition. Growth curves, shown in FIGS. 1-5, for PE cells treated with calcitriol and the C-10 carbon-substituted dimers 38, 39, 43, 44, 45, 47 and 48, and monomer 27 generated by assay for the reduction of the tetrazolium-based compound MTT, see Charmichael, et al., Cancer Res., 47:936-942 (1987). […] PE cells were seeded at a density of 5,000 cells/well in 50 μL of medium into 96-well microtiter plates. Twelve hours later, the medium was removed, and cells were treated with 100 μL of fresh medium into which the appropriate amount of calcitriol or analog dissolved in dimethyl sulfoxide (DMSO) had been added, with the concentration of DMSO held constant at 0.1%. […] At 24-hour intervals following the initial treatment of the cells with compounds, 0.1 mg (50 μL of a 2 mg/mL solution) of MTT was added to each well. After 4 hours, the MTT was removed and DMSO added to dissolve the blue formazan dye. Using a microtiter plate reader, the A505 was then determined and cell number calculated from blank-subtracted absorbance values.

HCC-2998 = test: NCI 60 cell line panel screening assay (SRB), HCC-2998; type: cell-based; settings: Homo sapiens, HCC 2998, 48 h, read-out: Log10 LC50 (converted)
SK-MEL-5 = test: NCI 60 cell line panel screening assay (SRB), SK-MEL-5; type: cell-based; settings: Homo sapiens; SK-MEL-5, melanoma, 48 h; read-out: Log10 GI50 (converted)
Stability (hydrolysis) = type: physicochemical

C[C@@H]1CC[C@H]2[C@@H](C)C(=O)O[C@@H]3O[C@@]4(C)CC[C@@H]1[C@]32OO4 [Artemisinin]
ED50 (malaria; read-out: ED50 subcutaneous): 3 mg/kg | ED90 (malaria; read-out: ED90 subcutaneous): 8.5 mg/kg | pIC50 [1]: 4.53 | SD90 (P. berghei): 6.20 mg/kg | clinical outcome in malaria patients [2]: clinical cure of all patients | clinical outcome in malaria patients ([2]; listed as artemisinin): used successfully in many thousand malaria patients | potency compared to chloroquine [3]: comparable | potency compared to mefloquine [4]: comparable | solubility in water [5]: insolubility in water

CC1CCC2C(C)C(CC(=O)c3cccc(C(=O)CC4OC5OC6(C)CCC7C(C)CCC(C4C)C57OO6)c3)OC3OC4(C)CCC1C32OO4 (centres unmarked) [Dimer 39]
IC (TGI) (IGROVI): > 100 µM | antiproliferative activity relative to calcitriol [6]: at least as antiproliferative as calcitriol

C[C@H]1[C@@H](F)O[C@@H]2O[C@@]3(C)CC[C@H]4[C@H](C)CC[C@@H]1[C@@]24OO3 [Compound VI, 10β-Fluoro-10-deoxoartemisinin]
CC50 (HCC-2998): > 100 µM | GI50 (SK-MEL-5): 0.49 µM | stability (Stability (hydrolysis)): stable crystalline solid
